Reference: patent US20250098679A1, “HERBICIDAL PYRIDONE DERIVATIVES” (SYNGENTA CROP PROTECTION AG, priority 2021, published 2025)

Experiments:
Assay type in all cases: in vivo
Conditions in all cases: evaluated after 13 days
[1] = tested on: Echinochloa crus-galli (ECHCG); assay: Post-emergence Test, Echinochloa crus-galli (ECHCG); parameters: key to percentage damage caused to the plant, ECHCG (five-point scale): 5=81-100%, 4=61-80%, 3=41-60%, 2=21-40%, 1=0-20% damage
In short: (§1)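 Tested at 1000 g/ha unless otherwise stated. Plants were held at 24/16 °C day/night with a 14 h light period. Percent damage was read at 13 days and reported in five bands.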

[2] = tested on: Echinochloa crus-galli (ECHCG); assay: Pre-emergence Test, Echinochloa crus-galli (ECHCG)
Zea mays (ZEAMX) [3] = assay: Pre-emergence Test, Zea mays (ZEAMX)
[4] = tested on: Ipomoea hederacea (IPOHE); assay: Post-emergence Test, Ipomoea hederacea (IPOHE); parameters: key to percentage damage caused to the plant, IPOHE (five-point scale): 5=81-100%, 4=61-80%, 3=41-60%, 2=21-40%, 1=0-20% damage
In short: as §1

[5] = tested on: Amaranthus palmeri (AMAPA); assay: Pre-emergence Test, Amaranthus palmeri (AMAPA)
[6] = tested on: Amaranthus retoflexus (AMARE); assay: Pre-emergence Test, Amaranthus retoflexus (AMARE)
[7] = tested on: Ipomoea hederacea (IPOHE); assay: Pre-emergence Test, Ipomoea hederacea (IPOHE)
Setaria faberi (SETFA) [8] = assay: Pre-emergence Test, Setaria faberi (SETFA)
[9] = tested on: Amaranthus palmeri (AMAPA); assay: Post-emergence Test, Amaranthus palmeri (AMAPA); parameters: key: 5=81-100%, 4=61-80%, 3=41-60%, 2=21-40%, 1=0-20% damage
In short: as §1

Setaria faberi (SETFA) [10] = assay: Post-emergence Test, Setaria faberi (SETFA); parameters: key to percentage damage caused to the plant, SETFA (five-point scale): 5=81-100%, 4=61-80%, 3=41-60%, 2=21-40%, 1=0-20% damage
In short: as §1

Zea mays (ZEAMX) [11] = assay: Post-emergence Test, Zea mays (ZEAMX); parameters: key to percentage damage caused to the plant, ZEAMX (five-point scale): 5=81-100%, 4=61-80%, 3=41-60%, 2=21-40%, 1=0-20% damage
In short: as §1

[12] = tested on: Amaranthus retoflexus (AMARE); assay: Post-emergence Test, Amaranthus retoflexus (AMARE); parameters: key to percentage damage caused to the plant, AMARE (five-point scale): 5=81-100%, 4=61-80%, 3=41-60%, 2=21-40%, 1=0-20% damage
In short: as §1

## CCn1c(Cn2nccc2OC(F)F)cc(=O)c(C(=O)O)c1-c1ccc(Cl)c(Cl)c1 [Compound 85, 2-(3,4-dichlorophenyl)-6-[[5-(difluoromethoxy)pyrazol-1-yl]methyl]-1-ethyl-4-oxo-pyridine-3-carboxylic acid]
[1]; 250 g/Ha
  percentage damage caused to the plant, ECHCG (five-point scale): 2 (2=21-40%)
[2]; 250 g/Ha (*)
  Pre-emergence Test ECHCG, percentage damage caused to the plant (five-point scale): 2 (2=21-40%)
Zea mays (ZEAMX) [3]; 250 g/Ha (*)
  Pre-emergence Test ZEAMX, percentage damage caused to the plant (five-point scale): 0
[4]; 250 g/Ha
  percentage damage caused to the plant, IPOHE (five-point scale): 4 (4=61-80%)
[5]; 250 g/Ha (*)
  Pre-emergence Test AMAPA, percentage damage caused to the plant (five-point scale): 0
[6]; 250 g/Ha (*)
  Pre-emergence Test AMARE, percentage damage caused to the plant (five-point scale): 0
[7]; 250 g/Ha (*)
  Pre-emergence Test IPOHE, percentage damage caused to the plant (five-point scale): 1 (1=0-20%)
Setaria faberi (SETFA) [8]; 250 g/Ha (*)
  Pre-emergence Test SETFA, percentage damage caused to the plant (five-point scale): 3 (3=41-60%)
[9]; 250 g/Ha
  percentage damage caused to the plant, AMAPA (five-point scale): 0
Setaria faberi (SETFA) [10]; 250 g/Ha
  percentage damage caused to the plant, SETFA (five-point scale): 4 (4=61-80%)
Zea mays (ZEAMX) [11]; 250 g/Ha
  percentage damage caused to the plant, ZEAMX (five-point scale): 0
[12]; 250 g/Ha
  percentage damage caused to the plant, AMARE (five-point scale): 0

## CCn1c(Cn2cnc(C(F)(F)F)n2)cc(=O)c(C(=O)O)c1-c1ccc(Cl)c(Cl)c1 [Compound 7, 2-(3,4-dichlorophenyl)-1-ethyl-4-oxo-6-[[3-(trifluoromethyl)-1,2,4-triazol-1-yl]methyl]pyridine-3-carboxylic acid]
[1]; 1000 g/ha
  percentage damage caused to the plant, ECHCG (five-point scale): 2 (2=21-40%)
[2]; 1000 g/ha
  Pre-emergence Test ECHCG, percentage damage caused to the plant (five-point scale): 3 (3=41-60%)
Zea mays (ZEAMX) [3]; 1000 g/ha
  Pre-emergence Test ZEAMX, percentage damage caused to the plant (five-point scale): 1 (1=0-20%)
[4]; 1000 g/ha
  percentage damage caused to the plant, IPOHE (five-point scale): 1 (1=0-20%)
[5]; 1000 g/ha
  Pre-emergence Test AMAPA, percentage damage caused to the plant (five-point scale): 0
[6]; 1000 g/ha
  Pre-emergence Test AMARE, percentage damage caused to the plant (five-point scale): 0
[7]; 1000 g/ha
  Pre-emergence Test IPOHE, percentage damage caused to the plant (five-point scale): 0
Setaria faberi (SETFA) [8]; 1000 g/ha
  Pre-emergence Test SETFA, percentage damage caused to the plant (five-point scale): 3 (3=41-60%)
[9]; 1000 g/ha
  percentage damage caused to the plant, AMAPA (five-point scale): 1 (1=0-20%)
Setaria faberi (SETFA) [10]; 1000 g/ha
  percentage damage caused to the plant, SETFA (five-point scale): 4 (4=61-80%)
Zea mays (ZEAMX) [11]; 1000 g/ha
  percentage damage caused to the plant, ZEAMX (five-point scale): 1 (1=0-20%)
[12]; 1000 g/ha
  percentage damage caused to the plant, AMARE (five-point scale): 1 (1=0-20%)

## CCOC(=O)c1c(-c2ccc(Cl)c(Cl)c2)n(CC)c(Cn2cnc(C(F)(F)F)n2)cc1=O [Compound 12, ethyl 2-(3,4-dichlorophenyl)-1-ethyl-4-oxo-6-[[3-(trifluoromethyl)-1,2,4-triazol-1-yl]methane]pyridine-3-carboxylate]
[1]; 1000 g/ha
  percentage damage caused to the plant, ECHCG (five-point scale): 1 (1=0-20%)
[2]; 1000 g/ha
  Pre-emergence Test ECHCG, percentage damage caused to the plant (five-point scale): 0
Zea mays (ZEAMX) [3]; 1000 g/ha
  Pre-emergence Test ZEAMX, percentage damage caused to the plant (five-point scale): 0
[4]; 1000 g/ha
  percentage damage caused to the plant, IPOHE (five-point scale): 2 (2=21-40%)
[5]; 1000 g/ha
  Pre-emergence Test AMAPA, percentage damage caused to the plant (five-point scale): 0
[6]; 1000 g/ha
  Pre-emergence Test AMARE, percentage damage caused to the plant (five-point scale): 0
[7]; 1000 g/ha
  Pre-emergence Test IPOHE, percentage damage caused to the plant (five-point scale): 0
Setaria faberi (SETFA) [8]; 1000 g/ha
  Pre-emergence Test SETFA, percentage damage caused to the plant (five-point scale): 0
[9]; 1000 g/ha
  percentage damage caused to the plant, AMAPA (five-point scale): 2 (2=21-40%)
Setaria faberi (SETFA) [10]; 1000 g/ha
  percentage damage caused to the plant, SETFA (five-point scale): 1 (1=0-20%)
Zea mays (ZEAMX) [11]; 1000 g/ha
  percentage damage caused to the plant, ZEAMX (five-point scale): 1 (1=0-20%)
[12]; 1000 g/ha
  percentage damage caused to the plant, AMARE (five-point scale): 1 (1=0-20%)
